This passage reports IC50 results from BindingDB's records for doi:10.7270/Q2HD7T4S (Sanford-Burnham Center For Chemical Genomics, 2008).

Molecules are shown by their SMILES.

This test has as its target E3 ubiquitin-protein ligase XIAP (Homo sapiens, UniProt P98170). Put plainly: small molecules displacing peptide from XIAP – biochemical, IAP family, fluorescence polarization (AID 1018).

E3 ubiquitin-protein ligase XIAP, sequence (P98170 whole entry): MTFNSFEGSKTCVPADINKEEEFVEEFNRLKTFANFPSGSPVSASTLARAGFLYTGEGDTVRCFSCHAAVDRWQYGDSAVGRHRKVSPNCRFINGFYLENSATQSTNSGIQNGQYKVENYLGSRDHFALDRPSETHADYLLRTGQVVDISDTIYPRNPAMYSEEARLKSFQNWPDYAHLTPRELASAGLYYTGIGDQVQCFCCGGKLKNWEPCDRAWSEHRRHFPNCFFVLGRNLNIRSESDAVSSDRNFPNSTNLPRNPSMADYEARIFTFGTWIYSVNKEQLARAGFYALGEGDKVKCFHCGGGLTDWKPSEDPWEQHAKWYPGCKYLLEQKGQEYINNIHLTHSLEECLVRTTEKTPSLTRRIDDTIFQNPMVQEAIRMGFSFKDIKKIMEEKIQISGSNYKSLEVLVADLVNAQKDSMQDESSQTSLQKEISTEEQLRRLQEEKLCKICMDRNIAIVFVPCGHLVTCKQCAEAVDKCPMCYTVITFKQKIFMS

The term IC50 denotes the concentration at which inhibition is half-maximal. Take `COc1cc(CN=Nc2nc(Nc3ccc(C)cc3)nc(-n3nc(C)cc3C)n2)cc(OC)c1OC`: the IC50 is above 100 µM.

On to `COc1cc(CN=Nc2cc(C)nc(NS(=O)(=O)c3ccc(C)cc3)n2)ccc1O`, for which the IC50 was above 100 µM.

The compound `Cc1cc(=O)[nH]c(N=NC(CC(C)C)CC(C)C)n1` had an IC50 above 100 µM.

`O=C(O)c1cccc(-n2c(O)c3c(c2O)CC(Cl)=CC3)c1` [3-[5-chloranyl-1,3-bis(oxidanylidene)-3a,4,7,7a-tetrahydroisoindol-2-yl]benzoic acid]: the IC50 was above 100 µM.

In the case of `COc1ccc(C(=O)C2C(=O)C(=O)N(CC3CCCO3)C2c2cccc(OC)c2)cc1` (stereo not given) [(4Z)-4-[hydroxy-(4-methoxyphenyl)methylene]-5-(3-methoxyphenyl)-1-(tetrahydrofurfuryl)pyrrolidine-2,3-quinone], the IC50 is above 100 µM.

Take `O=C(CC=Nc1ccc(Nc2ccccc2)cc1)c1cccs1` [(E)-3-(4-anilinoanilino)-1-thiophen-2-yl-2-propen-1-one]: the IC50 was above 100 µM.

Compound `COc1cccc(C(=O)CC=Nc2cc(C)ccc2O)c1` [MLS000088060] gave an IC50 above 100 µM.

`COc1ccc(CN=Nc2nc(N3CCCC3)nc(N3CCCC3)n2)cc1` [MLS000704198]: the IC50 was above 100 µM.

For the compound `CCOc1ccccc1NC(=O)C1C(C)=NC(=S)NC1c1cccs1` (stereo not given) [N-(2-ethoxyphenyl)-6-methyl-2-sulfanylidene-4-thiophen-2-yl-3,4-dihydro-1H-pyrimidine-5-carboxamide], the IC50 was above 100 µM.

For `Cc1cccc(N(CC(N)=O)c2sc(=O)n(-c3ccccc3)c2O)c1` [SMR000009552], the IC50 was above 100 µM.
